Data published in patent US8426408B2, “Pyrimidine inhibitors of kinases” (AbbVie Inc., priority 2009, dated 2013).
pKi: −log10 of the molar value.

What was measured:
NCI-H1299 cells = assay: Induction of polyploidy in H1299; format: cell-based, Human; settings: NCI-H1299, 48 hours
Description: To determine the induction of polyploidy in H1299 cells, NCI-H1299 were seeded (4K/well) into 96-well culture plates (tissue culture grade, black, flat-clear bottom) and incubated overnight to produce cell-to-plate adherence. Inhibitors at varying concentrations were added into duplicate wells containing cells and culture media (RPMI 1640, 10% fetal calf serum) and incubated at 37 C for 48 hours. The plates were then washed with PBS and the adherent cells fixed by incubating with 3% formalin for 1 hour. After washing four times with PBS, the cells were then stained with Hoechst and subjected to fluorescent (360 i/460e) microscopic high content analysis to determine the effect of inhibitors on nuclear size. Polyploid cells (≧4N) were defined as those having nuclear area>750μ^2. Potency was expressed as the concentration of inhibitor necessary to induce polyploidy in 15% of cells (EC15) and was calculated from least squares analysis of the log dose-response.

Aurora A = target: T1, Aurora A (Homo sapiens, UniProt O14965); assay: Aurora A enzyme inhibition (time-resolved fluorescence, STK substrate-2); format: biochemical; settings: 1 mM ATP
T1 sequence (O14965 1-403): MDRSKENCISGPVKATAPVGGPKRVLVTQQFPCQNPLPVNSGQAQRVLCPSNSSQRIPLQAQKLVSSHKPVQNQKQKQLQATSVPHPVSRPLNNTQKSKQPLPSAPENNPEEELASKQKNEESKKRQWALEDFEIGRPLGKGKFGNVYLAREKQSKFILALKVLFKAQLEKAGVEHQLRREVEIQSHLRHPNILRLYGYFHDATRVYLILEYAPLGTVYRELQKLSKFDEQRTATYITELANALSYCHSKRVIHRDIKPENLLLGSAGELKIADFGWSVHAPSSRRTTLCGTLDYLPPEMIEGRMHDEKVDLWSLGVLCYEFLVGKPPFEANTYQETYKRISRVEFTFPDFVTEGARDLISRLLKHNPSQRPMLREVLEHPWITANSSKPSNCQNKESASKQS
Summary of the method: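 Phosphorylation of biotinylated STK substrate-2 at 1 mM ATP, 1 h, Hepes buffer pH 7.4 (MgCl2, sodium orthovanadate, Triton X-100). After EDTA quench, 665/615 nm time-resolved fluorescence ratio read via europium anti-phospho antibody and SA-XL665; IC50 from exponential fit versus inhibitor concentration.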

Aurora B = target: T2, Aurora B (Homo sapiens, UniProt Q96GD4); assay: Aurora B enzyme inhibition (time-resolved fluorescence, histone H3 peptide); format: biochemical; settings: 1 mM ATP
T2 construct: Active Aurora B enzyme (recombinant residues 1-344)
Summary of the method: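 IC50s came from an exponential fit of inhibition against inhibitor concentration, with phosphorylation read as the 665/615 nm time-resolved fluorescence ratio after EDTA stop using Eu-anti-phospho-H3 and SA-APC. The 1 h reaction used Aurora B 1-344 plus GST-INCENP, biotin-histone H3 1-21 peptide and 1 mM ATP in pH 7.4 HEPES buffer.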

KDR = KDR (Homo sapiens, UniProt P35968); assay: KDR HTRF in vitro kinase assay; format: biochemical; set-up: purified enzyme (His6-KDR 789-1354, MW 63 kD); His6 (N); settings: 1 mM ATP; read-out: KDR enzyme inhibition data (Ki)
Summary of the method: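 His6-KDR 789-1354 (7 ng/well) with 0.5 μM biotinylated peptide substrate and 1 mM ATP in HEPES pH 7.1, MgCl2/MnCl2, 60 min at room temperature. EDTA-quenched, detected by streptavidin-XL-665 plus Eu-kryptate anti-phosphotyrosine HTRF after 3 h; IC50 from 620/665 nm ratio.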

T2 sequence (Q96GD4 whole entry, the tested form may be a part): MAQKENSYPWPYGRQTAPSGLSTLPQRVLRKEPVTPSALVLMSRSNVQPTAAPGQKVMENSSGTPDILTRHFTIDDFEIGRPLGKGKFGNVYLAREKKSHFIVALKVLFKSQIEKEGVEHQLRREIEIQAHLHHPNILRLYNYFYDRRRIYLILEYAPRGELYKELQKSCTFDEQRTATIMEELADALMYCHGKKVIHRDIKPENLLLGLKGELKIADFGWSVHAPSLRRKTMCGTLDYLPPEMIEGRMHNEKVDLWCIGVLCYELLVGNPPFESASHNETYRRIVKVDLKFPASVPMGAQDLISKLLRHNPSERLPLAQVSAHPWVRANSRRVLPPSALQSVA
T2 sequence (Q9NQS7 826-918 partner limits assumed): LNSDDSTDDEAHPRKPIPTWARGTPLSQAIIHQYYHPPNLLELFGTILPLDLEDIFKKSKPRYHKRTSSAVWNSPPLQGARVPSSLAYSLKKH
Chain of KDR (P35968 789-1354): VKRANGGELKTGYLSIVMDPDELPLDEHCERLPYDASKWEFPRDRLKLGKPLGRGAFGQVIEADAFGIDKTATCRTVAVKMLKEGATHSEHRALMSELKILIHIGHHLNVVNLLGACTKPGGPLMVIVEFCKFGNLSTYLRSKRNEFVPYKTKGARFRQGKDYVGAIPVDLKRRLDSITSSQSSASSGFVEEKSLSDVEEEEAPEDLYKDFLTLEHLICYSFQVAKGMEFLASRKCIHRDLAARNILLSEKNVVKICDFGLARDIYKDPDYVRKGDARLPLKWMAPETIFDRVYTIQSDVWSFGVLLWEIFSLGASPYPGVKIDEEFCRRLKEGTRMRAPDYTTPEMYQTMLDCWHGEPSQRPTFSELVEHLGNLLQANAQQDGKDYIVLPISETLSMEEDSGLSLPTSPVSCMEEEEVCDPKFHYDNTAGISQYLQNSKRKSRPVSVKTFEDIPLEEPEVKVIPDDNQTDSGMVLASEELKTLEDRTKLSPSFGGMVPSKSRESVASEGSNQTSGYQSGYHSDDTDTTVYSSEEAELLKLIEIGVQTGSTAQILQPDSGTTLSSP

SMILES	EC15 (concentration of inhibitor necessary to induce polyploidy in 15% of cells) (NCI-H1299 cells)	pKi (Aurora A)	pKi (Aurora B)	pKi (KDR)
Cn1cc(Nc2ncc(C(F)(F)F)c(N[C@@H]3[C@H](C(N)=O)[C@H]4C=C[C@@H]3C4)n2)cn1.Cn1cc(Nc2ncc(C(F)(F)F)c(N[C@H]3[C@@H](C(N)=O)[C@@H]4C=C[C@H]3C4)n2)cn1 (mixture of isomers) [Example 10, (1S,2S,3R,4R)-3-{[2-[(1-methyl-1H-pyrazol-4-yl)amino]-5-(trifluoromethyl)pyrimidin-4-yl]amino}bicyclo[2.2.1]hept-5-ene-2-carboxamide and (1R,2R,3S,4S)-3-{[2-[(1-methyl-1H-pyrazol-4-yl)amino]-5-(trifluoromethyl)pyrimidin-4-yl]amino}bicyclo[2.2.1]hept-5-ene-2-carboxamide]	A (“A” represents an EC15 of less than 0.1 μM)	> 7.00	> 7.00	> 7.00
CC(O)Cn1cc(Nc2ncc(C(F)(F)F)c(NC3C4C=CC(C4)C3C(N)=O)n2)cn1 (mixture of isomers) [Example 19, (1R,2R,3S,4S)-3-{[2-({1-[(2R)-2-hydroxypropyl]-1H-pyrazol-4-yl}amino)-5-(trifluoromethyl)pyrimidin-4-yl]amino}bicyclo[2.2.1]hept-5-ene-2-carboxamide and (1S,2S,3R,4R)-3-{[2-({1-[(2R)-2-hydroxypropyl]-1H-pyrazol-4-yl}amino)-5-(trifluoromethyl)pyrimidin-4-yl]amino}bicyclo[2.2.1]hept-5-ene-2-carboxamide]	A (“A” represents an EC15 of less than 0.1 μM)	> 7.00	> 7.00	> 7.00
Cn1cc(Nc2ncc(C(F)(F)F)c(N[C@@H]3[C@@H]4CC[C@@H](C4)[C@@H]3C(N)=O)n2)cn1.Cn1cc(Nc2ncc(C(F)(F)F)c(N[C@H]3[C@H]4CC[C@H](C4)[C@H]3C(N)=O)n2)cn1 (mixture of isomers) [Example 20, (1S,2S,3R,4R)-3-{[2-[(1-methyl-1H-pyrazol-4-yl)amino]-5-(trifluoromethyl)pyrimidin-4-yl]amino}bicyclo[2.2.1]heptane-2-carboxamide and (1R,2R,3S,4S)-3-{[2-[(1-methyl-1H-pyrazol-4-yl)amino]-5-(trifluoromethyl)pyrimidin-4-yl]amino}bicyclo[2.2.1]heptane-2-carboxamide]	A (“A” represents an EC15 of less than 0.1 μM)	> 7.00	> 7.00	> 7.00
CC(O)Cn1cc(Nc2ncc(C(F)(F)F)c(NC3C4CCC(C4)C3C(N)=O)n2)cn1 (mixture of isomers) [Example 21, (1S,2R,3S,4R)-3-{[2-({1-[(2R)-2-hydroxypropyl]-1H-pyrazol-4-yl}amino)-5-(trifluoromethyl)pyrimidin-4-yl]amino}bicyclo[2.2.1]heptane-2-carboxamide and (1R,2S,3R,4S)-3-{[2-({1-[(2R)-2-hydroxypropyl]-1H-pyrazol-4-yl}amino)-5-(trifluoromethyl)pyrimidin-4-yl]amino}bicyclo[2.2.1]heptane-2-carboxamide]	A (“A” represents an EC15 of less than 0.1 μM)	> 7.00	6.00 to 7.00	6.00 to 7.00
CCn1cc(Nc2ncc(C(F)(F)F)c(N[C@@H]3[C@H](C(N)=O)[C@H]4C=C[C@@H]3C4)n2)cn1.CCn1cc(Nc2ncc(C(F)(F)F)c(N[C@H]3[C@@H](C(N)=O)[C@@H]4C=C[C@H]3C4)n2)cn1 (mixture of isomers) [Example 22, (1S,2S,3R,4R)-3-{[2-[(1-ethyl-1H-pyrazol-4-yl)amino]-5-(trifluoromethyl)pyrimidin-4-yl]amino}bicyclo[2.2.1]hept-5-ene-2-carboxamide and (1R,2R,3S,4S)-3-{[2-[(1-ethyl-1H-pyrazol-4-yl)amino]-5-(trifluoromethyl)pyrimidin-4-yl]amino}bicyclo[2.2.1]hept-5-ene-2-carboxamide]	A (“A” represents an EC15 of less than 0.1 μM)	> 7.00	> 7.00	> 7.00
CCn1cc(Nc2ncc(C(F)(F)F)c(N[C@@H]3[C@H]4CC[C@H](C4)[C@@H]3C(N)=O)n2)cn1.CCn1cc(Nc2ncc(C(F)(F)F)c(N[C@H]3[C@@H]4CC[C@@H](C4)[C@H]3C(N)=O)n2)cn1 (mixture of isomers) [Example 24, (1R,2S,3R,4S)-3-{[2-[(1-ethyl-1H-pyrazol-4-yl)amino]-5-(trifluoromethyl)pyrimidin-4-yl]amino}bicyclo[2.2.1]heptane-2-carboxamide and (1S,2R,3S,4R)-3-{[2-[(1-ethyl-1H-pyrazol-4-yl)amino]-5-(trifluoromethyl)pyrimidin-4-yl]amino}bicyclo[2.2.1]heptane-2-carboxamide]	A (“A” represents an EC15 of less than 0.1 μM)	> 7.00	> 7.00	> 7.00
CCn1cc(Nc2ncc(Br)c(N[C@@H]3[C@H](C(N)=O)[C@H]4C=C[C@@H]3C4)n2)cn1.CCn1cc(Nc2ncc(Br)c(N[C@H]3[C@@H](C(N)=O)[C@@H]4C=C[C@H]3C4)n2)cn1 (mixture of isomers) [Example 31, (1S,2S,3R,4R)-3-({5-bromo-2-[(1-ethyl-1H-pyrazol-4-yl)amino]pyrimidin-4-yl}amino)bicyclo[2.2.1]hept-5-ene-2-carboxamide and (1R,2R,3S,4S)-3-({5-bromo-2-[(1-ethyl-1H-pyrazol-4-yl)amino]pyrimidin-4-yl}amino)bicyclo[2.2.1]hept-5-ene-2-carboxamide]	A (“A” represents an EC15 of less than 0.1 μM)	> 7.00	> 7.00	> 7.00
Cn1cc(Nc2ncc(Cl)c(N[C@@H]3[C@@H]4CC[C@@H](C4)[C@@H]3C(N)=O)n2)cn1.Cn1cc(Nc2ncc(Cl)c(N[C@H]3[C@H]4CC[C@H](C4)[C@H]3C(N)=O)n2)cn1 (mixture of isomers) [Example 113, (1R,2R,3S,4S)-3-({5-chloro-2-[(1-methyl-1H-pyrazol-4-yl)amino]pyrimidin-4-yl}amino)bicyclo[2.2.1]heptane-2-carboxamide and (1S,2S,3R,4R)-3-({5-chloro-2-[(1-methyl-1H-pyrazol-4-yl)amino]pyrimidin-4-yl}amino)bicyclo[2.2.1]heptane-2-carboxamide]	A (“A” represents an EC15 of less than 0.1 μM)	> 7.00	> 7.00	> 7.00
CCn1cc(Nc2ncc(Cl)c(N[C@@H]3[C@@H]4CC[C@@H](C4)[C@@H]3C(N)=O)n2)cn1.CCn1cc(Nc2ncc(Cl)c(N[C@H]3[C@H]4CC[C@H](C4)[C@H]3C(N)=O)n2)cn1 (mixture of isomers) [Example 114, (1R,2R,3S,4S)-3-({5-chloro-2-[(1-ethyl-1H-pyrazol-4-yl)amino]pyrimidin-4-yl}amino)bicyclo[2.2.1]heptane-2-carboxamide and (1S,2S,3R,4R)-3-({5-chloro-2-[(1-ethyl-1H-pyrazol-4-yl)amino]pyrimidin-4-yl}amino)bicyclo[2.2.1]heptane-2-carboxamide]	A (“A” represents an EC15 of less than 0.1 μM)	> 7.00	> 7.00	> 7.00
